Series [1] concerns the target Tyrosine-protein kinase Fgr (Homo sapiens) (UniProt P09769). Description: Selectivity interaction (ActivX KiNativ screen (ex vivo kinase selectivity in human PBMCs)) EUB0001619a FGR. Particulars: PBMC, at 1 µM. Type of series: cell-based.
The target of series [2] is Transient receptor potential cation channel subfamily M member 6 (Homo sapiens) (UniProt Q9BX84). The experiment in a line: Selectivity interaction (KinomeScan (DiscoverX)) EUB0000666a TRPM6. Particulars: at 10 µM.
The target of series [3] is Cyclin-dependent kinase-like 1 (Homo sapiens) (UniProt Q00532). Description: Selectivity interaction (KinomeScan (DiscoverX)) EUB0000666a CDKL1. To be noted: at 10 µM.
Series [4] concerns the target T1, Bone morphogenetic protein receptor type-2 (Homo sapiens) (UniProt Q13873).
T1 sequence (whole entry): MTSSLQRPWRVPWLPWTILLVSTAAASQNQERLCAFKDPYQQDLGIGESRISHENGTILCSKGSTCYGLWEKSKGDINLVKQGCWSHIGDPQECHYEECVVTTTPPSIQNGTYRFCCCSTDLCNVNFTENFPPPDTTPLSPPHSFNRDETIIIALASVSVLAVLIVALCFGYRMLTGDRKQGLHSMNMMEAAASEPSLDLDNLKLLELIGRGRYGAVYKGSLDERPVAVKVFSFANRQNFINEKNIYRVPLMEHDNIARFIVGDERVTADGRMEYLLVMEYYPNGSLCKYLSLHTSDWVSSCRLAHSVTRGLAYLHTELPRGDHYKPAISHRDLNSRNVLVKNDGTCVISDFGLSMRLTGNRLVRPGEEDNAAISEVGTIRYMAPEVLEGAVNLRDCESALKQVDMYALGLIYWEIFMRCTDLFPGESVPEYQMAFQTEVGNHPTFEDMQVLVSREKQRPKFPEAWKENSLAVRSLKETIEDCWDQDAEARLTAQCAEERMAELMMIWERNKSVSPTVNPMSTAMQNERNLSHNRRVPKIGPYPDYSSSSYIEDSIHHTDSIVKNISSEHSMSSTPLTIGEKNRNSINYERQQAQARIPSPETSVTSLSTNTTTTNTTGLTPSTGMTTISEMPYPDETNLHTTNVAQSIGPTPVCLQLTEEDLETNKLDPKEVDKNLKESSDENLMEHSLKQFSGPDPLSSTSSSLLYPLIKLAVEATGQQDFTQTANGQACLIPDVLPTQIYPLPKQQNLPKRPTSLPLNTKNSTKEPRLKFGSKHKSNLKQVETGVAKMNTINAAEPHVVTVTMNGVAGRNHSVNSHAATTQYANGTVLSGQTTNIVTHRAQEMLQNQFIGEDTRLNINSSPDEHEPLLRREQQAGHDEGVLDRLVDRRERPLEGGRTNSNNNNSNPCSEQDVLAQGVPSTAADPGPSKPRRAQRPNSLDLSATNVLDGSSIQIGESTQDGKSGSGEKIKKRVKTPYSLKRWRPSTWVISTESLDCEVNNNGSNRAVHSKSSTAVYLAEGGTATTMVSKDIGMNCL
To be noted: at 10 µM.

Series [5] addresses Serine/threonine-protein kinase PRP4 homolog (Homo sapiens) (UniProt Q13523). Description: Selectivity interaction (ActivX KiNativ screen (kinase selectivity in THP-1 cell lysates)) EUB0000639a PRPF4. In kind it is subcellular. Particulars: lysate.
The target in series [6] is CDK12/Cyclin K (Homo sapiens) (UniProt O75909+Q9NYV4). The experiment in a line: Selectivity interaction (ProQinase) EUB0000171b CDK12. Type of series: protein-complex assay. Particulars: at 1 µM.
Series [7] addresses T2, Protein kinase C epsilon type (Homo sapiens) (UniProt Q02156).
T2 sequence (whole entry): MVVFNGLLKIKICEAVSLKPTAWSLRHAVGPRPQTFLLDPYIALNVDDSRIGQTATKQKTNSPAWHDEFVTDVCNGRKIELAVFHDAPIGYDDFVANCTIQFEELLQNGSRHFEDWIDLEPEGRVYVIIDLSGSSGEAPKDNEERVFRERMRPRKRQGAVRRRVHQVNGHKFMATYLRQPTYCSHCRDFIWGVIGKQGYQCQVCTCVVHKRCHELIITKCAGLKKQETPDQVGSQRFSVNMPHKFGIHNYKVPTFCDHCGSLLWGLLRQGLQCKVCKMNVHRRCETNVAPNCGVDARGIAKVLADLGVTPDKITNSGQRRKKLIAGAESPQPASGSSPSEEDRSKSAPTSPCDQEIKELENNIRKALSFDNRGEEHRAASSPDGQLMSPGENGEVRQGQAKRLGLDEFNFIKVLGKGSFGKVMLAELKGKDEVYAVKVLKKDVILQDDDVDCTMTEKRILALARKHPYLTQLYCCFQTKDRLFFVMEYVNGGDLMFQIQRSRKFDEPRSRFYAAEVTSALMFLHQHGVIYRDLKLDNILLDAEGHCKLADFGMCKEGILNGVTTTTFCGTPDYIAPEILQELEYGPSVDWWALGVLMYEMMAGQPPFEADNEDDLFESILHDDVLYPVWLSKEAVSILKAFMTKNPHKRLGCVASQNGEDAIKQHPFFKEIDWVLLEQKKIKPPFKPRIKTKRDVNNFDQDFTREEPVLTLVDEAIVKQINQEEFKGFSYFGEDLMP
Description: Selectivity interaction (Ambit KINOMEscan and KiNATiv profiling in Jurkat cells) EUB0000090b PRKCE. To be noted: at 1 µM. In kind it is cell-based.

The target of another series is OATP1B1 (SLCO1B1) (Homo sapiens, UniProt Q9Y6L6). Description: Selectivity interaction (Panel of kinases, GPCRs, ion channels and transporters (enzymatic assay)) EUB0000223bCl SLCO1B1. Particulars: not told.
Series [8] has as its target Serine/threonine-protein kinase N2 (Homo sapiens, UniProt Q16513). Description: Selectivity interaction (Kinase panel (33PanQinase(R) Activity Assay)) EUB0000877a PKN2.
Series [9] addresses Calcium/calmodulin-dependent protein kinase kinase 1 (Homo sapiens) (UniProt Q8N5S9). The experiment in a line: Selectivity interaction (KinomeScan (DiscoverX)) EUB0001079a CAMKK1. Particulars: at 1 µM.

Where only a bound is given, the exact number is not on record here.

Sequence of Serine/threonine-protein kinase PRP4 homolog (Homo sapiens) (Q13523 whole entry): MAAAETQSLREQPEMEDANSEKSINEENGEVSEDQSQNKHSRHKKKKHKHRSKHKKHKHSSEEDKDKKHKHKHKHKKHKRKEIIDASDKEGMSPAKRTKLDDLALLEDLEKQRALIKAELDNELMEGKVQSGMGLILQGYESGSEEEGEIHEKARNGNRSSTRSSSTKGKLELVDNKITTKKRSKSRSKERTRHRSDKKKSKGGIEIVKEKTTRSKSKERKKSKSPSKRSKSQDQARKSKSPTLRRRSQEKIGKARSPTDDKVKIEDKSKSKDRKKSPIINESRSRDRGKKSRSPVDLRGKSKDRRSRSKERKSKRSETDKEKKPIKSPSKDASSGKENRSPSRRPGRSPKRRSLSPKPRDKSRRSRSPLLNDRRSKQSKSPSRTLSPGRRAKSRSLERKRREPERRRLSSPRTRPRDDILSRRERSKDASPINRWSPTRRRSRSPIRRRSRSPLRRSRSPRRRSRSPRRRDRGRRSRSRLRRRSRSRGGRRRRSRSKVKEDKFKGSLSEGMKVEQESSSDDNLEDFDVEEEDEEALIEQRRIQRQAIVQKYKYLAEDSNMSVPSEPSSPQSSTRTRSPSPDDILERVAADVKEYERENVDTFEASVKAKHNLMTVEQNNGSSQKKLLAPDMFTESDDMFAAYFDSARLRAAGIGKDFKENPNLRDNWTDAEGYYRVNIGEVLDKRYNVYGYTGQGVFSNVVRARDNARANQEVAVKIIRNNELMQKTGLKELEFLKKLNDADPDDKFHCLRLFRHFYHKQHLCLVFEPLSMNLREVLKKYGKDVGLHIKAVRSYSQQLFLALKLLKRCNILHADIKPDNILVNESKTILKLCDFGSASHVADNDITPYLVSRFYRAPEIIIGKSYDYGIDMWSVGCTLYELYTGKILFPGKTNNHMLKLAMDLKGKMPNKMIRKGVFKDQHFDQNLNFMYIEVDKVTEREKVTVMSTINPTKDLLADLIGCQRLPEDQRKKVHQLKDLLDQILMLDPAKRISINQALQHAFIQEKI
Sequence of Calcium/calmodulin-dependent protein kinase kinase 1 (Homo sapiens) (Q8N5S9 whole entry, looked up): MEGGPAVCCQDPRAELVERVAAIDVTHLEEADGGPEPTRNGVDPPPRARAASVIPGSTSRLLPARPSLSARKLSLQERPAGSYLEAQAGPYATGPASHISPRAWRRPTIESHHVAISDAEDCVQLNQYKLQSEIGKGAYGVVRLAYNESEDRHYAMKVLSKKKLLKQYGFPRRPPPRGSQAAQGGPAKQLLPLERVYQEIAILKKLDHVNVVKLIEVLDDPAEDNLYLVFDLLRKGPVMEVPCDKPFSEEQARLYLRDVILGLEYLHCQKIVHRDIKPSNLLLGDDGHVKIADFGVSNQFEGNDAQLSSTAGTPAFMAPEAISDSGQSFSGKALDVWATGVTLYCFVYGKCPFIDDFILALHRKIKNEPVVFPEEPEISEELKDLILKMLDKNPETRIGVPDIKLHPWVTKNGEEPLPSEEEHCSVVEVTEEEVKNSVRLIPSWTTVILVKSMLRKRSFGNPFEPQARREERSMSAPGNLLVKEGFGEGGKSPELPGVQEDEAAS
Sequence of Cyclin-dependent kinase-like 1 (Homo sapiens) (Q00532 whole entry): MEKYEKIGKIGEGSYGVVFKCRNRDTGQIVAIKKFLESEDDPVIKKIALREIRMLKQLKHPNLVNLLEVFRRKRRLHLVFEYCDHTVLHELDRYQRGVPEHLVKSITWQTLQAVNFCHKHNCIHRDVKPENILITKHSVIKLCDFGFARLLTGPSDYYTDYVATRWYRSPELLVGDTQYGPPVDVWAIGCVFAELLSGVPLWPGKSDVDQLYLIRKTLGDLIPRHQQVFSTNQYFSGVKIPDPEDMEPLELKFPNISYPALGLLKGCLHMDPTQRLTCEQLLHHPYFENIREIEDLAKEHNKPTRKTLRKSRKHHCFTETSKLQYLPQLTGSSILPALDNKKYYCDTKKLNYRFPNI
Sequence of Serine/threonine-protein kinase N2 (Q16513 whole entry): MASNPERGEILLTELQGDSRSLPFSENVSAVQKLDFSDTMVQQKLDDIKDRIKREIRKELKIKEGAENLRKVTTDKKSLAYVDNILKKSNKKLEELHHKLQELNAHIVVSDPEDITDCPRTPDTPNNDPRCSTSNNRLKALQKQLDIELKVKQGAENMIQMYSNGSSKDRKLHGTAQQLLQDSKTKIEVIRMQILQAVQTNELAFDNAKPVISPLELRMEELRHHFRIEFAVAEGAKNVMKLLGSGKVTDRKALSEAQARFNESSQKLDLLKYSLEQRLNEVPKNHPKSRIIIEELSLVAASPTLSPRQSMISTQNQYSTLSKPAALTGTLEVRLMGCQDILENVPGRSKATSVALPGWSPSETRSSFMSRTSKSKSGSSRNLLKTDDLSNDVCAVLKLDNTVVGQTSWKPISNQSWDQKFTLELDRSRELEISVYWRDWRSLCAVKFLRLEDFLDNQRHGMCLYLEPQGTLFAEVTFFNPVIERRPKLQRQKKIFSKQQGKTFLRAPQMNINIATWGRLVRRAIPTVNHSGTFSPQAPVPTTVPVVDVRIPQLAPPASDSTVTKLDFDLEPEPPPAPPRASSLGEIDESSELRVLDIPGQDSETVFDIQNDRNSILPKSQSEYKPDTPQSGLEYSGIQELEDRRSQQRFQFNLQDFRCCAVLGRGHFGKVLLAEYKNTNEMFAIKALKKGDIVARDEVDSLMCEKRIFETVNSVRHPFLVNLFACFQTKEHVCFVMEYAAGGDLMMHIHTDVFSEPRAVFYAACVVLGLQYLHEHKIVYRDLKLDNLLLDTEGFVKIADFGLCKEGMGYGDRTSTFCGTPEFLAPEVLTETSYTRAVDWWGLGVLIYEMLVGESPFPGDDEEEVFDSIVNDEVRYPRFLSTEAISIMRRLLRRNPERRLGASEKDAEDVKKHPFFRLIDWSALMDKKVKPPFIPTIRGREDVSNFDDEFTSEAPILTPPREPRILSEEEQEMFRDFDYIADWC
Sequence of Transient receptor potential cation channel subfamily M member 6 (Homo sapiens) (Q9BX84 whole entry): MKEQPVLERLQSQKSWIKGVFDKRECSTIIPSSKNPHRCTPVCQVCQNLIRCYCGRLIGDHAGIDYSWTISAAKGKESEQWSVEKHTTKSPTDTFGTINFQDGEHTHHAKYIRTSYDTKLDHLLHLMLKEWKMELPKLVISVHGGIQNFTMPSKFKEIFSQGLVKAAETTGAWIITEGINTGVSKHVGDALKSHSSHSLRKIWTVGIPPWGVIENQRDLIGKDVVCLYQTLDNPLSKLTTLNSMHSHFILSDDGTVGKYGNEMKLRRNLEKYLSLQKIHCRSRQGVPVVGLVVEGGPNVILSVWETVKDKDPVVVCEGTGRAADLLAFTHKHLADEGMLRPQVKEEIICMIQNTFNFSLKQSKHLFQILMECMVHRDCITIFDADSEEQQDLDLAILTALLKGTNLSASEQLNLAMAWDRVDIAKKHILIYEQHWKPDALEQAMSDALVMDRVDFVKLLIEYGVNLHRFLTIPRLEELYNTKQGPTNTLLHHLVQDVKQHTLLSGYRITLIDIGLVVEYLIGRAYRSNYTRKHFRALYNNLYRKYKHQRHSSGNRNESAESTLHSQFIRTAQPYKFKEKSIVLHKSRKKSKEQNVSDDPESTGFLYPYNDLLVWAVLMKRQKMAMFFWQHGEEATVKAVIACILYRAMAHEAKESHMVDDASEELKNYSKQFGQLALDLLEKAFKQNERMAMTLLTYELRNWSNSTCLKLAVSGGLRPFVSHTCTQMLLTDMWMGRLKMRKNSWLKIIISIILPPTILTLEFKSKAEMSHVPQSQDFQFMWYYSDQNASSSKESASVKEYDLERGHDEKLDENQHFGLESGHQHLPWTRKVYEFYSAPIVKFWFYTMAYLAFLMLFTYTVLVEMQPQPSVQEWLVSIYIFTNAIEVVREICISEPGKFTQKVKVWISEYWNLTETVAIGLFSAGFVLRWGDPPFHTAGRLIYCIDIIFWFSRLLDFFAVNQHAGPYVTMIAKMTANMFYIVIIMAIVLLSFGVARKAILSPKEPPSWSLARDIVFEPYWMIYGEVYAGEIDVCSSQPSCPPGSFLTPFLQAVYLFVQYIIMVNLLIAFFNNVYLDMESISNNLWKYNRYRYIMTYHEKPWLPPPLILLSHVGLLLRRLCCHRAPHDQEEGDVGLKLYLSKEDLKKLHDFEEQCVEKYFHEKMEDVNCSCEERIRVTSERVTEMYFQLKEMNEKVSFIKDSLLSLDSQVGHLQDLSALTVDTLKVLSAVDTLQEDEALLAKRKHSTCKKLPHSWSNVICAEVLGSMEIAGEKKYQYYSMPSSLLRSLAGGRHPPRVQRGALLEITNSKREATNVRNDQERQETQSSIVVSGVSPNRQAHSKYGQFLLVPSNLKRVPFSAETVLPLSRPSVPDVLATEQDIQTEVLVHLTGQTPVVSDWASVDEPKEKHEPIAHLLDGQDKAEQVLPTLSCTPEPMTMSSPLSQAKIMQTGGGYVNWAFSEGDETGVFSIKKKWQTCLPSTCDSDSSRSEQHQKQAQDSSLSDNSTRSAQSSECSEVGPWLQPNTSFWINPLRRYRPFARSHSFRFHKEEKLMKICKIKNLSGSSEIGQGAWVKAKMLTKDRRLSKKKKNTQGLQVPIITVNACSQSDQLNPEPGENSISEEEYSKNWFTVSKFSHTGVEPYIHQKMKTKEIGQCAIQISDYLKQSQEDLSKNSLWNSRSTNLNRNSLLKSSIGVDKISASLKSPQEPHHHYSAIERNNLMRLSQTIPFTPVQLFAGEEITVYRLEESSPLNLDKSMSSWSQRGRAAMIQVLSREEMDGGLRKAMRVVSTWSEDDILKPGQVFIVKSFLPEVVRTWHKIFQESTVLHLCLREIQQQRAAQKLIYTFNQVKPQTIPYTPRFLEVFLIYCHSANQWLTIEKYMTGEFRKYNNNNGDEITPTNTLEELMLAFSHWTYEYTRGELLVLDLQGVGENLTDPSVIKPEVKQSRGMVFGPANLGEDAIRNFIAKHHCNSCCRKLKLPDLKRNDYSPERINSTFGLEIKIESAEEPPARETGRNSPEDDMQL

Take `N#Cc1cccc(-c2c[nH]c3ncnc(N4CCOCC4)c23)c1`: the % of inhibition in series [1] stood at 2%.

`O=C(NOC[C@H](O)CO)c1ccc(F)c(F)c1Nc1ccc(I)cc1F`: the results for the % of control in [2] and in [3] were 100% and 78%, respectively.

Compound `Cc1cc([C@@H](C)Nc2ccccc2C(=O)O)c2nc(N3CCOCC3)cc(=O)n2c1` [AZD-6482] displayed a % of control in series [4] of 69%.

Take `CC[C@@H]1[C@H](F)C(=O)N[C@@H]1COc1nccc2cc(C(N)=O)c(OC)cc12` [ZIMLOVISERTIB]: the % of inhibition in series [5] (at 0.01 µM) is -2.3%; in [5] (at 0.04 µM), 7.1%; in series [5] (at 0.2 µM), 29.8%; in [5] (at 1 µM), 73.9%; in series [5] (at 5 µM), 86.3%.

For the compound `C=CC(=O)Nc1cccc(C(=O)Nc2ccc(Nc3cc(-c4[nH]c(SC)nc4C)ccn3)cc2)c1`, the % of control in series [6] was determined as 82%.

Take `CN(C)C/C=C/C(=O)Nc1ccc(C(=O)N2CCCC(Nc3ncc(Cl)c(-c4c[nH]c5ccccc45)n3)C2)cc1` (centres undefined): the % of control in [7] was 99%.

In the case of `COc1cc(C(=O)N2CC[C@@H](O)[C@@H](N)C2)cc2nc(-c3cc4ccccc4n3CC3CC3)n(C)c12`, the XC50 on OATP1B1 (SLCO1B1) was 7.94 µM.

Consider `CCC(=O)N1CC[C@H](Nc2ncnc3c2CN(c2cnc(OC)c(C(F)(F)F)c2)CC3)C1` [LENIOLISIB], for which the IC50 in series [8] was over 10 µM.

As to `Nc1cnc(N2CCc3cc(S(=O)(=O)Nc4c(F)cc(Cl)cc4F)cc(N4CCCC4=O)c32)nc1` [TP-020n], the % of control in [9] worked out at 100%.

Values taken from ChEMBL document CHEMBL5465560, “Selectivity Literature for EUbOPEN Chemogenomic Library” (2024).
